Like-named read-outs stand apart in the source and are kept apart here. Values belong to the molecule of their own block, whether it stands above or below them.
Assays:
[1] = UV/visible absorption spectroscopy of Eu(III) complexes in TRIS buffer; type: physicochemical; conditions: TRIS buffer pH = 7.4
Excerpt: Extinction Coefficient. A series of solutions of varied concentrations will be prepared from the solids based on mass and purity. The absorbance of each of these solutions at both 340 nm and at the appropriate acceptor wavelength will be measured and plotted according to Beer's Law (A=εcL where A is absorbance, ε is the extinction coefficient in M^−1 cm^−1, c is concentration, and L is path length in cm) with the fitted linear regression slope equal to […] on a plot of A as a function of C.
Each of the spectra have absorption maxima around 335-340 nm (FIG. 2). Those bands are composed of two electronic transitions; at higher energy, a purely π-π* transition and, at slightly lower energy (around ca. 320 nm), a π-π* transition with some n-π* character, as evidenced previously from TD-DFT calculations. […] This interaction gives maxima blue-shifting from 341 nm for [Eu(H(2,2)-1,2-HOPO)]^0 to 334 nm for [Eu(H(17O5,2)-1,2-HOPO)]^0 (as low as 332 nm for)[Eu(5LIN^Me-1,2HOPO)2]^0).

[2] = Luminescence quantum yield, emission and brightness in aqueous 0.1 M TRIS buffer; type: physicochemical; conditions: for øTot: 0.1M TRIS buffer pH = 7.4; for Brightness: at maximum absorption, product of quantum yield and molar absorption coefficient, 0.1 M TRIS pH = 7.4; for overall quantum yield (in words): related to inner-sphere coordinated water
Protocol: Quantum Yield. Quantum yield will be measured using established methods. Fluorescence quantum yield Q are measured in diluted solution with an optical density lower than 0.1 using the following equation Qx/Qr=[Ar(λr)/Ax(λx)][nx^2/nr^2][Dx/Dr] were A is the absorbance at the excitation wavelength (λ), n the refractive index and D the integrated luminescence intensity. Subscripts “r” and “x” stand for reference and sample, respectively. References will be a quinine bisulfate in 1N sulfuric acid in aqueous solution (Qt=0.546)^1 and Ru(bpy)3 2C1 complexes in water solution (Qr=0.028)^2 for all complexes. A plot of integrated emission intensity (i.e. Dr) versus absorbance (i.e. Ar(λr)) yields a linear plot with a slope which can be equated to the reference quantum yield Qr. By analogy, for the unknown sample, a plot of integrated emission intensity (i.e. Dx) versus absorbance (i.e. Ax(λx)) yields a linear plot and Qx can then be evaluated. A minimum of at least two independent measurements will be averaged to derive a reliable value.

[3] = Triplet excited state energy from phosphorescence of Gd complexes at 77K; type: physicochemical; conditions: solid matrix (methanol/ethanol 1/4), using the Gd complexes
Protocol: Estimation of the energies of the ligand based triplet excited state were determined using the Gd(III) complexes. Gadolinium was chosen because it is a 4f^7 lanthanide cation having a similar 4f electronic configuration and size as the europium cation (4f^6), but lacking an accessible metal based low energy electronic excited state. At room temperature, only a broad weak emission centered between 380-400 nm can be seen for the Gd(III) complexes. […] At 77K, in solid matrix, an emission band at approx. 500 nm can be seen (FIG. 8). This emission, red-shifted compared to the singlet excited state, can be assigned to phosphorescence from the triplet excited state, lower in energy than the singlet excited state observed at room temperature. Selective time gated phosphorescence spectra (delay 0.1 ms) of the gadolinium complexes at 77K are depicted in FIG. 8.

[4] = Calculation of Eu luminescence parameters (radiative lifetime, rate constants, efficiencies); type: physicochemical; conditions: listed as [Eu(H(22)-1,2-HOPO)]
Protocol: In this equation, the ηISC ηET term is termed the sensitization efficiency, ηsens (ηsens=ηISC ηET). All the luminescence parameters τR (the pure radiative luminescence lifetime), kR and knR (the radiative and non-radiative constant rate) can be deduced. These parameters were calculated for five of the octadentate complexes and the model complex that present only one species in solution at pH=7.4 and are reported in Table 6.

[5] = cited from earlier work; for λ: absorption maximum; for ε: extinction coefficient
[6] = quantum yield; cited from earlier work
[7] = cited from earlier work; for τ (D2O): first component where two are printed; for τ (H2O): first (longer) component; for q / q, second species: number of inner sphere water molecules; for q: first species; for τ (H2O), second component: second (shorter) component of biexponential decay
[8] = competitive batch titration using DTPA in 0.1M TRIS pH = 7.4 and 0.1M KCl; cited from earlier work
[9] = Luminescence lifetimes (TRIS buffer, deuterated water, 77K) and inner sphere water number q; conditions: for τ^D / τ^D, second component: deuterated solution; for τ^D / τ (77K): first component; for q / q, second species: inner sphere water molecules; for q: improved Horrock's equations, first species; for τ (77K) / τ (77K), second component: solid matrix at 77K (methanol/ethanol 1/4)
Protocol: Fluorescent decay signals can be acquired using an IBH DataStation Hub photon counting module and data analysis performed using the commercially available DAS 6 decay analysis software package from HORIBA Jobin Yvon IBH. Goodness of fit will be assessed by minimizing the reduced chi squared function, χ2, and a visual inspection of the weighted residuals. Each trace will use at least 10,000 points and the reported lifetime values result from at least three independent measurements.
In addition to the steady state emission spectra, the luminescence quantum yields and luminescence lifetimes of the Eu(III) complexes were also measured in aqueous solution with 0.1 M TRIS buffer pH=7.4 and in deuterated solution to estimate the number of inner sphere water molecule (i.e. q) using the improved Horrock's equations.
Luminescence lifetimes were also determined at 77K, in a solid matrix (Table 5), which have allowed us to determine whether back energy transfer between the donor triplet excited state and the acceptor manifold excited state of the lanthanide is present, or alternately whether quenching via low lying LMCT state occurs.

[10] = Stability titration (pEu) by competitive batch titration using DTPA; type: physicochemical; conditions: for pEu value as compared to DTPA: in words
Protocol: Stability Titrations. The general procedure used to determine the pEu values of ligands was adapted from an already described study using Gd and are similar to that already reported for other complexes. Different volumes of a standardized DTPA stock solution were added to solutions of constant ligand, metal, and electrolyte concentrations. Concentrations of complexed ligand in each solution were determined by subtracting the remaining luminescence intensity after addition of DTPA to the initial luminescence intensity at identical pH and those concentrations were used as references for the analysis. Stability of compounds towards mM concentrations of EDTA and divalent cations will be assessed by incubation of the proposed molecules at nM concentration at room temperature in aqueous solutions of test ions. Time Resolved Fluorescent signal will be assessed at the outset of experiment and monitored over a minimum of 24 hours to determine signal change.

[11] = listed as [Eu(H(2,2)-1,2-HOPO)]^0
[12] = listed as [Eu(H(2,2)-1,2HOPO)]^0
[13] = listed as [Eu(H(3,2)-1,2HOPO)]^0
[14] = listed as [Eu(H(4,2)-1,2HOPO)]^0

λ^maxabs [1, 11]: 341 nm | ε [1, 12]: 18,200 M^−1 · cm^−1 | λ^maxabs [1, 12]: 341 nm | øTot [2, 12]: 0.036 | ϕTot ([2]; aqueous TRIS pH = 7.4, complexes with only one species, listed as [Eu(H(22)-1,2-HOPO)]): 0.036 | Brightness [2, 11]: 655 M⁻¹ cm⁻¹ | Brightness [2, 12]: 655 M⁻¹ cm⁻¹ | overall quantum yield (in words) [2]: low quantum yields | T0-0 (triplet excited state energy) [3, 12]: 21,980 cm^−1 | η^Eu ([4]; efficiency of metal centred luminescence): 0.160 | knr ([4]; non-radiative rate constant): 1750 s⁻¹ | τrad ([4]; pure radiative luminescence lifetime, aqueous TRIS pH = 7.4): 3000 μs | kr ([4]; radiative rate constant): 333 s⁻¹ | τ ([9]; aqueous TRIS pH = 7.4, listed as [Eu(H(22)-1,2-HOPO)]): 480 μs | τ^D [9, 12]: 1222 μs | q [9, 12]: 1.1 | τ (77K) [9, 12]: 914 μs
SMILES: O=C(NCCN(CCCCN(CCNC(=O)c1cccc(=O)n1O)CCNC(=O)c1cccc(=O)n1O)CCNC(=O)c1cccc(=O)n1O)c1cccc(=O)n1O [Eu(H2)]
η^sens ([4]; sensitization efficiency): 0.225 | λ [5]: 341 nm | ε [5]: 18,200 M^1 cm^−1 | ϕEu [6]: 0.036 | τ (D2O) [7]: 1222 μs | τ (H2O) [7]: 480 μs | q [7]: 1.1 | pEu [8]: 21.2

ε [1, 13]: 17,700 M^−1 · cm^−1 | λ^maxabs [1, 13]: 339 nm | øTot [2, 13]: 0.037 | Brightness [2, 13]: 655 M⁻¹ cm⁻¹ | overall quantum yield (in words) [2]: low quantum yields | pEu value as compared to DTPA [10]: decreased | decrease in stability relative to Eu(H8-2) and Eu(H11-3) ([10]; pEu difference): 2.9 log unit | T0-0 (triplet excited state energy) [3, 13]: 21,900 cm^−1 | τ^D [9, 13]: 811; μs | τ^D, second component [9, 13]: 369 μs | q ([9]; listed as [Eu(H(3,2)-1,2-HOPO)]^0): 0.3 | q [9, 13]: 0.3; | q, second species [9, 13]: 1.0 | τ (77K) [9, 13]: 1040; μs | τ (77K), second component [9, 13]: 781 μs
SMILES: O=C(NCCN(CCCCN(CCNC(=O)c1cccc(=O)n1O)CCNC(=O)c1cccc(=O)n1O)CCNC(=O)c1cccc(=O)n1O)c1cccc(=O)n1O [Eu(H3)]
λ [5]: 339 nm | ε [5]: 17,700 M^1 cm^−1 | ϕEu [6]: 0.037 | τ (D2O) [7]: 811 μs | τ (D2O), second component [7]: 369 μs | τ (H2O) [7]: 552 μs | τ (H2O), second component [7]: 253 μs | q [7]: 0.3 | q, second species [7]: 1.0 | pEu [8]: 17.5

ε [1, 14]: 17,900 M^−1 · cm^−1 | λ^maxabs [1, 14]: 337 nm | øTot ([2]; listed as [Eu(H(4,2)-1,2-HOPO)]^0): 0.031 | øTot [2, 14]: 0.031 | Brightness [2, 14]: 555 M⁻¹ cm⁻¹ | overall quantum yield (in words) [2]: low quantum yields | pEu value as compared to DTPA [10]: decreased | T0-0 (triplet excited state energy) [3, 14]: 22,390 cm^−1 | τ^D [9, 14]: 803; μs | τ^D, second component [9, 14]: 338 μs | q [9, 14]: 0; | q, second species [9, 14]: 1.1 | τ (77K) [9, 14]: 902; μs | τ (77K), second component [9, 14]: 645 μs
SMILES: O=C(NCCN(CCCCN(CCNC(=O)c1cccc(=O)n1O)CCNC(=O)c1cccc(=O)n1O)CCNC(=O)c1cccc(=O)n1O)c1cccc(=O)n1O [Eu(H4)]
λ [5]: 337 nm | ε [5]: 17,900 M^1 cm^−1 | ϕEu [6]: 0.031 | τ (D2O) [7]: 803 μs | τ (D2O), second component [7]: 338 μs | τ (H2O) [7]: 649 μs | τ (H2O), second component [7]: 236 μs | q [7]: 0 | q, second species [7]: 1.1 | pEu [8]: 18.4

From patent US10352938B2, “Macrocyclic HOPO chelators” (LUMIPHORE, INC., priority 2009, dated 2019)
